Test results as given in publication PMC7766124, “Improved Cell Selectivity of Pseudin-2 via Substitution in the Leucine-Zipper Motif: In Vitro and In Vivo Antifungal Activity” (Antibiotics, 2020).
Where two headings read alike, the source gives them in different places. No end group written: not given here.

Assays:
A. flavus = type: cell-based, Aspergillus flavus (KCTC 6905); settings: 36 h
Excerpt: (§1) Aspergillus flavus (KCTC 6905), A. fumigatus (KCTC 6145), Fusarium moniliforme (KCTC 6149), F. oxysporum (KCTC 16909), C. albicans (KCTC 7270), C. krusei (CCARM 14017), C. parapsilosis (CCARM 14016), C. tropicalis (KCTC 7221), and T. beigelii (KCTC 7707) were obtained from the Korea Collection for Type Cultures (KCTC) and Culture Collection of Antimicrobial Resistant Microbes (CCARM). Mold and yeast fungi were pre-grown on potato dextrose (PD) and yeast extract peptone dextrose (YPD) agars, respectively.
(§2) Antifungal activity of peptides was performed by microtiter plate assays. Fungal conidia from four-day-old molds were collected using 0.08% Triton X-100 (v/v), and pre-cultivated yeast cells were adjusted to 2 × 10^4 spores/mL in 10 mM sodium phosphate buffer (SP, pH 7.2) or 10 mM 2-(N-morpholino)ethanesulfonic acid (MES) buffer (pH 5.5) supplemented with 20% culture medium, followed by addition to peptide solutions (0.25, 0.5, 1, 1.5, 2, 4, 6, 8, 12, 16, 32, 48, and 64 µM) in 96-well microtiter plates. After incubation for 36 h at 28 °C, the hyphal growth of conidia and the proliferation of yeast cells were observed under a light microscope. All assays were performed in triplicate. The MIC values were defined as the lowest concentration of samples that reduced fungal germination (for mold) or cell proliferation (for yeast) by more than 90% [34].

A. fumigatus = type: cell-based, A. fumigatus (KCTC 6145); settings: 36 h
Excerpt: as §1, §2

F. moniliforme = type: cell-based, Fusarium moniliforme (KCTC 6149); settings: 36 h
Excerpt: as §1, §2

F. oxysporum = type: cell-based, F. oxysporum (KCTC 16909); settings: 36 h
Excerpt: as §1, §2

C. albicans = type: cell-based, C. albicans (KCTC 7270); settings: 36 h
Excerpt: as §1, §2

C. krusei = type: cell-based, C. krusei (CCARM 14017); settings: 36 h
Excerpt: as §1, §2

C. parapsilosis = type: cell-based, C. parapsilosis (CCARM 14016); settings: 36 h
Excerpt: as §1, §2

C. tropicalis = type: cell-based, C. tropicalis (KCTC 7221); settings: 36 h
Excerpt: as §1, §2

T. beigelii = type: cell-based, T. beigelii (KCTC 7707); settings: 36 h
Excerpt: as §1, §2

[1] = Calcein leakage from fungus-mimic artificial vesicles; settings: fungus-mimic PC/PE/PI/ergosterol vesicles, 20 μM lipid; peptide/lipid molar ratio 0.05; 100% = 0.03% Triton X-100; three independent experiments
Protocol: The permeability of peptides in calcein-entrapped artificial liposomes was assayed by measuring calcein leakage. The desired mixtures of lipids (PC/PE/PI/ergosterol, 5:4:1:2 and PC/CH/SM, 2:1:1, weight ratio) were dissolved in chloroform at 10 mg/mL, dried in a glass tube under nitrogen, and then lyophilized overnight to remove residual solvent. The dried lipid films were resuspended in 1 mL of dye solution (80 mM calcein, 10 mM HEPES buffer, pH 7.2) at 50 °C and vortexed, followed by freeze-thawing for nine cycles and extrusion with polycarbonate filters (0.2-μm pore-size) using an Avanti Mini-Extruder (Avanti Polar Lipids Inc., Alabaster, AL, USA). Free calcein was removed using PD-10 desalting columns (GE Healthcare Life Science, Seoul, Korea). Calcein-entrapped vesicles of 20 μM lipids were incubated with peptides at concentrations of […], 0.02, 0.05, and 0.1 molar ratio (peptide/lipid) and the fluorescence was assessed at 480 (Ex) and 520 (Em) nm using a microtiter SpectraMax M5 reader (Molecular Devices). Complete (100%) release was achieved by the addition of 0.03% Triton X-100 (v/v).

HaCaT cells = test: Cytotoxicity, XTT cell viability assay; type: cell-based, human; settings: peptides 4-256 µM, 24 h incubation, triplicate
Protocol: Cell viability was assessed using sodium XTT assays. HaCaT (human immortalized keratinocytes) cells were cultured in Dulbecco’s modified Eagle medium (DMEM; ThermoFisher Scientific, Gibco, Waltman, MA, USA) supplemented with antibiotic-antimycotic (ThermoFisher Scientific, Gibco) and 10% fetal bovine serum (FBS; ThermoFisher Scientific, Gibco) at 37 °C in a humidified chamber containing 5% CO2. The cells were seeded at 5 × 10^4 cells/mL in flat-bottom 96-well microtiter plates in triplicate. Twenty-four hours later, cells were treated with two-fold serial dilutions of peptides (ranging from 256 to 4 µM) in medium, and the cells were further incubated for 24 h. Next, activated-XTT solution was added to each well and the plates were additionally incubated for 4 h. Absorbance in each well was measured at wavelengths of 480 and 650 nm using a microtiter SpectraMax M5 reader (Molecular Devices, Sunnyvale, CA, USA). Triton X-100 (0.1% v/v) and DMEM were used as controls for survival.

| Substance | MIC (A. flavus; pH 5.5) [µM] | MIC (A. flavus; pH 7.2) [µM] | MIC (A. fumigatus; pH 5.5) [µM] | MIC (A. fumigatus; pH 7.2) [µM] | MIC (F. moniliforme; pH 5.5) | MIC (F. moniliforme; pH 7.2) | MIC (F. oxysporum; pH 5.5) [µM] | MIC (F. oxysporum; pH 7.2) [µM] | MIC (C. albicans; pH 5.5) [µM] | MIC (C. albicans; pH 7.2) [µM] | MIC (C. krusei; pH 5.5) | MIC (C. krusei; pH 7.2) | MIC (C. parapsilosis; pH 5.5) | MIC (C. parapsilosis; pH 7.2) | MIC (C. tropicalis; pH 5.5) | MIC (C. tropicalis; pH 7.2) | MIC (T. beigelii; pH 5.5) | MIC (T. beigelii; pH 7.2) | leakage of calcein [1] [%] | cytotoxic effects against HaCaT cells (HaCaT cells) |
| --- | --- | --- | --- | --- | --- | --- | --- | --- | --- | --- | --- | --- | --- | --- | --- | --- | --- | --- | --- | --- |
| GANALKKVAQGIHEAIKLINNHVQ-NH2 [P2-LZ2] | 12 | 32 | 16 | 24 | 16 µM | 24 µM | 16 | 2 | 32 | 4 | 4 µM | 6 µM | 64 µM | 48 µM | 1.5 µM | 2 µM | 2 (2) µM | 2 (2) µM | 77.0 | – |
| GLNAAKKVFQGAHEAIKLINNHVQ-NH2 [P2-LZ1] | 12 | 64 | 16 | 64 | 48 (48) µM | 48 (48) µM | 12 | 4 | 32 | 8 | 8 (8) µM | 8 (8) µM | > 64 (>64) µM | > 64 (>64) µM | 2 µM | 4 µM | 2 (2) µM | 2 (2) µM | 81.8 | significant, concentration-dependent cytotoxic effects |
| GLNALKKVFQGAHEAIKLANNHVQ-NH2 [P2-LZ3] | 32 | 64 | 16 | 64 | 32 µM | 64 µM | 16 | 4 | 16 | 8 | 8 (8) µM | 8 (8) µM | >64 (>64) µM | >64 (>64) µM | 2 (2) µM | 2 (2) µM | 2 µM | 6 µM | 48.3 | – |
